These results are taken from patent publication US20220289691A1, “5-AMINO-SUBSTITUTED PYRAZOLES AND TRIAZOLES AS PEST CONTROL AGENTS” (Bayer Aktiengesellschaft, priority 2019, published 2022).

In one test the test system is Diabrotica balteata. Description: Diabrotica balteata spray test. It counts as in vivo. The following applies: 168 h, beetle larvae on wheat, after 7 days, read-out: efficacy (wheat plant growth); for pest or weed control at 500 g/ha: 500 g/ha (=160 μg/cavity); for pest or weed control at 100 g/ha: 100 g/ha (=32 μg/cavity). Here is the method: Diabrotica balteata—Spray Test Solvent: 78 parts by weight of acetone • • 1.5 parts by weight of dimethylformamide Emulsifier: alkylaryl polyglycol ether
(§1) To produce a suitable active compound formulation, 1 part by weight of active compound is dissolved using the stated parts by weight of solvent and made up with water containing an emulsifier concentration of 1000 ppm until the desired concentration is attained. To produce further test concentrations, the formulation is diluted with emulsifier-containing water.
Pre-swollen wheat grains (Triticum aestivum) are incubated in a multiwell plate filled with agar and a little water for one day (5 seed grains per cavity). The germinated wheat grains are sprayed with an active compound formulation of the desired concentration. Subsequently, each cavity is infected with 10-20 beetle larvae of Diabrotica balteata.
After 7 days, the efficacy in % is determined. 100% means that all wheat plants have grown as in the untreated, uninfected control; 0% means that no wheat plant has grown.

A further test concerns Spodoptera frugiperda. Kind of test: Spodoptera frugiperda spray test. Format: in vivo. To be noted: foliar, 168 h, 100 g/ha, maize leaf discs, after 7 days, read-out: efficacy (caterpillars killed). Here is the method:
Spodoptera frugiperda—Spray Test Solvent: 78.0 parts by weight of acetone • • 1.5 parts by weight of dimethylformamide Emulsifier: alkylaryl polyglycol ether
as §1
Leaf discs of maize (Zea mays) are sprayed with an active compound formulation of the desired concentration and, after drying, populated with caterpillars of the fall armyworm (Spodoptera frugiperda).
After 7 days, the efficacy in % is determined. 100% means that all the caterpillars have been killed; 0% means that no caterpillar has been killed.

Turning to `CNc1nc(-c2ccc(NC(=O)N=C3SCC(=O)N3c3ccccc3C(C)C)cc2)nn1-c1ccc(OC(F)(F)C(F)(F)F)cc1` [Compound I-027], the pest or weed control at 125 g/ha in the test on Diabrotica balteata (125 g/ha (=40 μg/cavity)) was determined as 100%. In the test on Diabrotica balteata, the pest or weed control at 500 g/ha was determined as 100%. Also, in the test with Spodoptera frugiperda, the pest or weed control at 100 g/ha turned out to be 100%. In the case of `CC(C)c1ccccc1N1C(=O)CSC1=NN=Cc1ccc(-c2nc(N)n(-c3ccc(OC(F)(F)C(F)(F)F)cc3)n2)cc1` [Compound I-065], in the test with Diabrotica balteata, the pest or weed control at 100 g/ha is 100% and the pest or weed control at 500 g/ha was 100%. Also, the pest or weed control at 100 g/ha in the test on Spodoptera frugiperda came out at 100%. Regarding `CNc1nc(-c2ccc(C=NN=C3SCC(=O)N3c3ccccc3C(C)C)cc2Cl)nn1-c1ccc(OC(F)(F)F)cc1` [Compound I-112], the pest or weed control at 100 g/ha in the test on Diabrotica balteata and with Spodoptera frugiperda was 100% each time.

For the compound `CNc1nc(-c2ccc(C=NN=C3SCC(=O)N3c3ccccc3C(C)C)cc2F)nn1-c1ccc(OC(F)(F)F)cc1` [Compound I-110], the pest or weed control at 100 g/ha in the test with Diabrotica balteata and with Spodoptera frugiperda was 100% in each case. As for `CNc1nc(-c2ccc(C=NN=C3SCC(=O)N3c3ccccc3C(C)C)cc2C#N)nn1-c1ccc(OC(F)(F)F)cc1` [Compound I-124], the pest or weed control at 100 g/ha with Diabrotica balteata and in the test on Spodoptera frugiperda was 100% in each case.

Take `COCCNc1nc(-c2ccc(C=NNC(=S)Nc3cc(OC)ccc3C(C)C)cc2)nn1-c1ccc(OC(F)(F)C(F)(F)F)cc1` [Compound I-133]: in the test with Spodoptera frugiperda, the pest or weed control at 100 g/ha amounted to 100%. With `CNc1nc(-c2ccc(C=NN=C3SCCC(=O)N3c3ccccc3C(C)C)cc2)nn1-c1ccc(OC(F)(F)F)cc1` [Compound I-113], the pest or weed control at 100 g/ha in the test on Diabrotica balteata and in the test with Spodoptera frugiperda was 100% each time.

In the case of `CNc1nc(-c2c(F)cc(C=NN=C3SCC(=O)N3c3ccccc3C(C)C)cc2F)nn1-c1ccc(OC(F)(F)F)cc1` [Compound I-122], the pest or weed control at 100 g/ha in the test on Diabrotica balteata and in the test with Spodoptera frugiperda was 100% in each case. For the compound `CC(C)c1ccccc1N1C(=O)CSC1=NN=Cc1ccc(-c2nc(NCCO)n(-c3ccc(OC(F)(F)F)cc3)n2)cc1` [Compound I-089], the pest or weed control at 100 g/ha with Spodoptera frugiperda came out at 100%. Consider `COC(CCNc1nc(-c2ccc(C=NNC(=S)Nc3ccccc3C(C)C)cc2)nn1-c1ccc(OC(F)(F)F)cc1)OC` [Compound I-082], for which the pest or weed control at 100 g/ha with Diabrotica balteata and in the test on Spodoptera frugiperda was 100% each time. With `CNc1nc(-c2ccc(C=NN=c3scc(C)n3-c3ccccc3C(C)C)cc2)nn1-c1ccc(OC(F)(F)C(F)(F)F)cc1` [Compound I-127], the pest or weed control at 100 g/ha in the test with Diabrotica balteata and with Spodoptera frugiperda was 100% throughout. For `CC(=O)Nc1nc(-c2ccc(C=NN=C3SCC(=O)N3c3ccccc3C(C)C)cc2)nn1-c1ccc(OC(F)(F)C(F)(F)F)cc1` [Compound I-099], the pest or weed control at 100 g/ha with Diabrotica balteata was determined as 80%; with Spodoptera frugiperda, 100%. The corresponding values for `CC(C)c1ccccc1NC(=S)NN=Cc1ccc(-c2nc(NC3CSC3)n(-c3ccc(OC(F)(F)C(F)(F)F)cc3)n2)cc1` [Compound I-100] are 100% and 100%.

With `COCCNc1nc(-c2ccc(NC(=O)N=C3SCC(=O)N3c3ccccc3C(C)C)cc2)nn1-c1ccc(OC(F)(F)C(F)(F)F)cc1` [Compound I-128], the pest or weed control at 100 g/ha with Spodoptera frugiperda came to 100%. Still for that read-out and setting: the same measure for `CC(C)c1ccccc1N1C(=O)CSC1=NN=Cc1ccc(-c2nc(NC3COC3)n(-c3ccc(OC(F)(F)F)cc3)n2)cc1` [Compound I-053]: 100%; for `COCCCNc1nc(-c2ccc(C=NN=C3SCC(=O)N3c3ccccc3C(C)C)cc2)nn1-c1ccc(OC(F)(F)F)cc1` [Compound I-077]: 100%. Same read-out and setting: the same measure for `CC(C)c1ccccc1NC(=S)NN=Cc1ccc(-c2nc(NCCO)n(-c3ccc(OC(F)(F)C(F)(F)F)cc3)n2)cc1` [Compound I-135]: 100%; for `CC(C)c1ccccc1N1C(=O)CSC1=NN=Cc1ccc(-c2nc(NCCC#N)n(-c3ccc(OC(F)(F)C(F)(F)F)cc3)n2)cc1` [Compound I-141]: 100%.

Turning to `CC(C)c1ccccc1N1C(=O)CSC1=NN=Cc1ccc(-c2nc(NC3CCOC3)n(-c3ccc(OC(F)(F)F)cc3)n2)cc1` (centres unmarked) [Compound I-069], the pest or weed control at 100 g/ha with Spodoptera frugiperda was 100%.

On to `CC(C)c1ccccc1NC(=S)NN=Cc1ccc(-c2nc(NCCO)n(-c3ccc(OC(F)(F)F)cc3)n2)cc1` [Compound I-078], for which the pest or weed control at 100 g/ha in the test on Spodoptera frugiperda amounted to 100%. As for `CC(C)c1ccccc1N1C(=O)CSC1=NN=Cc1ccc(-c2nc(NCCC#N)n(-c3ccc(OC(F)(F)F)cc3)n2)cc1` [Compound I-092], in the test with Spodoptera frugiperda, the pest or weed control at 100 g/ha came out at 100%. Same read-out and setting: the value for `CC(C)c1ccccc1N1C(=O)CSC1=NN=Cc1ccc(-c2nc(NC3CSC3)n(-c3ccc(OC(F)(F)C(F)(F)F)cc3)n2)cc1` [Compound I-101] was 83%; that for `CNc1nc(-c2ccc(C=NN=C3SCC(=O)N3c3ccccc3C(C)C)cc2C)nn1-c1ccc(OC(F)(F)F)cc1` [Compound I-121] was 100%; that for `COc1ccc(C(C)C)c(N2C(=O)CSC2=NN=Cc2ccc(-c3nc(NCCO)n(-c4ccc(OC(F)(F)C(F)(F)F)cc4)n3)cc2)c1` [Compound I-139] was 100%. On to `COCCNc1nc(-c2ccc(C=NNC(=S)Nc3ccccc3C(C)C)cc2)nn1-c1ccc(OC(F)(F)C(F)(F)F)cc1` [Compound I-132], for which, in the test on Spodoptera frugiperda, the pest or weed control at 100 g/ha came out at 100%. Still for that read-out and setting: the value for `CCOCCNc1nc(-c2ccc(C=NN=C3SCC(=O)N3c3ccccc3C(C)C)cc2)nn1-c1ccc(OC(F)(F)F)cc1` [Compound I-059] was 100%; that for `COCCNc1nc(-c2ccc(C=NN=C3SCC(=O)N3c3ccccc3C(C)C)cc2)nn1-c1ccc(OC(F)(F)F)cc1` [Compound I-076] was 100%; that for `COc1ccc(C(C)C)c(N2C(=O)CSC2=NN=Cc2ccc(-c3nc(NCCC#N)n(-c4ccc(OC(F)(F)C(F)(F)F)cc4)n3)cc2)c1` [Compound I-142] was 100%. Still for that read-out and setting: the same measure for `CC(C)c1ccccc1NC(=S)NN=Cc1ccc(-c2nc(NCCC#N)n(-c3ccc(OC(F)(F)C(F)(F)F)cc3)n2)cc1` [Compound I-136]: 100%; for `COCCNc1nc(-c2ccc(C=NN=C3SCC(=O)N3c3cc(OC)ccc3C(C)C)cc2)nn1-c1ccc(OC(F)(F)C(F)(F)F)cc1` [Compound I-130]: 100%. The same measure, in the same setting: the same measure for `CC(=O)Nc1nc(-c2ccc(C=NNC(=S)Nc3c(C)cccc3C)cc2)nn1-c1ccc(OC(F)(F)F)cc1` [Compound I-011]: 100%; for `CC(C)c1ccccc1NC(=S)NN=Cc1ccc(-c2nc(NS(=O)(=O)C(F)F)n(-c3ccc(OC(F)(F)F)cc3)n2)cc1` [Compound I-028]: 83%.

As to `COCCCNc1nc(-c2ccc(NC(=O)N=C3SCC(=O)N3c3ccccc3C(C)C)cc2)nn1-c1ccc(OC(F)(F)F)cc1` [Compound I-081], the pest or weed control at 100 g/ha with Spodoptera frugiperda is 100%. On the same count and under the same terms, the value for `CC(C)c1ccccc1N1C(=O)CSC1=NN=Cc1ccc(-c2nc(NCCO)n(-c3ccc(OC(F)(F)C(F)(F)F)cc3)n2)cc1` [Compound I-138] was 100%; that for `CC(C)c1ccccc1N1C(=O)CSC1=NC(=O)Nc1ccc(-c2nc(-n3ccnc3)n(-c3ccc(OC(F)(F)F)cc3)n2)cc1` [Compound I-031] was 100%; that for `COc1ccc(C(C)C)c(NC(=S)NN=Cc2ccc(-c3nc(NCCC#N)n(-c4ccc(OC(F)(F)C(F)(F)F)cc4)n3)cc2)c1` [Compound I-137] was 100%. The same measure, in the same setting: the same measure for `COc1ccc(C(C)C)c(N2C(=O)CSC2=NC(=O)Nc2ccc(-c3nc(NCCC#N)n(-c4ccc(OC(F)(F)C(F)(F)F)cc4)n3)cc2)c1` [Compound I-140]: 100%; for `CCOC(CNc1nc(-c2ccc(C=NNC(=S)Nc3ccccc3C(C)C)cc2)nn1-c1ccc(OC(F)(F)F)cc1)OCC` [Compound I-074]: 100%.

In the case of `COCCNc1nc(-c2ccc(C=NN=C3SCC(=O)N3c3ccccc3C(C)C)cc2)nn1-c1ccc(OC(F)(F)C(F)(F)F)cc1` [Compound I-129], the pest or weed control at 100 g/ha in the test on Spodoptera frugiperda is 100%. Consider `CNc1nc(-c2ccc(NC(=O)N=C3SCC(=O)N3c3ccccc3C(C)C)cc2)nn1-c1ccc(OC(F)(F)F)cc1` [Compound I-026], for which the pest or weed control at 500 g/ha in the test with Diabrotica balteata was determined as 80%. On to `CNc1nc(-c2ccc(C=NN=C3SCC(=O)N3c3ccccc3C(C)C)c(Cl)c2)nn1-c1ccc(OC(F)(F)F)cc1` [Compound I-115], for which the pest or weed control at 100 g/ha in the test with Spodoptera frugiperda worked out at 100%. The same measure, in the same setting: the value for `COc1ccc(C(C)C)c(NC(=S)NN=Cc2ccc(-c3nc(NCCO)n(-c4ccc(OC(F)(F)C(F)(F)F)cc4)n3)cc2)c1` [Compound I-134] was 100%. As to `COCCNc1nc(-c2ccc(NC(=O)N=C3SCC(=O)N3c3cc(OC)ccc3C(C)C)cc2)nn1-c1ccc(OC(F)(F)C(F)(F)F)cc1` [Compound I-131], the pest or weed control at 100 g/ha in the test on Spodoptera frugiperda amounted to 100%.
